biological target: T1, Human NK1 Receptor (Homo sapiens, UniProt P25103); test: In Vitro Human NK1 Receptor Binding Assay ([125I]Bolton-Hunter substance P displacement, IM9 cells); settings: Human lymphoma IM9 cells, [125I]Bolton-Hunter substance P; Table 3, array-synthesis products; read-out: IC50 (nM) hNK1
T1 construct: endogenous in cells; host or cells: Human lymphoma IM9 cells (whole cells)
Method: They have been evaluated in an NK1-receptor binding assay which is described below.
Human lymphoma IM9 cells were grown in RPMI 1640 culture medium supplemented with 10% fetal calf serum and 2 mM glutamine and maintained under an atmosphere of 5% CO2. Cells were passaged every 3-4 days by reseeding to a concentration of 4-8×10^6/40 ml per 175 cm^2 flask. Cells were harvested for experiments by centrifugation at 1000 g for 3 min. Pelleted cells were washed once by resuspension into assay buffer (50 mM Tris HCl pH 7.4, 3 mM MnCl2, 0.02% BSA, […] bacitracin, […] chymostatin, 2 mM phosphoramidon, […] leupeptin) and repeating the centrifugation step before resuspending at a concentration of 2.5×10^6 cells/mL assay buffer. Cells ([…]) were incubated with [^125I]Bolton-Hunter substance P (0.05-0.1 nM) in the presence and absence of varying concentrations of test compounds for 50 min at 21° C. Non-specific binding (10% of the total binding observed under these conditions) was defined by […] [Sar^9, Met(02)^11] substance P. Reactions were terminated by rapid filtration under vacuum onto GF\C filters presoaked in 0.2% PEI for 1-2 h, using a Brandel cell harvester. Filters were washed with 6×1 ml ice-cold Tris HCl (50 mM, pH 7.4) and radioactivity bound determined using a gamma couter. Results were analyzed using iterative curve fitting procedures in RS1 or Graphpad Inplot.

T1 sequence (P25103 whole entry): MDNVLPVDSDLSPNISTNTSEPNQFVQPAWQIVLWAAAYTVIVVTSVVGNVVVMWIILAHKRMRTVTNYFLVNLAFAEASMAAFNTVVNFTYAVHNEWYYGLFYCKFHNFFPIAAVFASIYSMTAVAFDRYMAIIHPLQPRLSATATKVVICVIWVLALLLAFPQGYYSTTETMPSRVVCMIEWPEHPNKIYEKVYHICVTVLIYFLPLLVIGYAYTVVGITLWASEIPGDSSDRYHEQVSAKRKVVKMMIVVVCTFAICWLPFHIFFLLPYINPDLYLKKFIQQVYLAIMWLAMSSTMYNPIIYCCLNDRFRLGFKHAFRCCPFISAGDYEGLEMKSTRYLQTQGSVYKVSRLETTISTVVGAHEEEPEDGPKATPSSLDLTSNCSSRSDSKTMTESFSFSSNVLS

SMILES | IC50
O=C(NC1CC1c1ccccc1)C(Cc1c[nH]c2ccccc12)NCc1cc2ccccc2o1 (stereo not shown) [Example 224, 2-[(Benzofuran-2-ylmethyl)-amino]-3-(1H-indol-3-yl)-N-(2-phenyl-cyclopropyl)-propionamide] | 2900 nM
CC(C)(NC(=O)C(Cc1c[nH]c2ccccc12)NCc1cc2ccccc2o1)C1CCCCC1 (stereo not shown) [Example 225, 2-[(Benzofuran-2-ylmethyl)-amino]-N-(1-cyclohexyl-1-methyl-ethyl)-3-(1H-indol-3-yl)-propionamide] | 1340 nM
CC(NC(=O)C(Cc1c[nH]c2ccccc12)NCc1cc2ccccc2o1)c1cccc(N(C)C)c1 (stereo not shown) [Example 227, 2-[(Benzofuran-2-ylmethyl)-amino]-N-[1-(3-dimethylamino-phenyl)-ethyl]-3-(1H-indol-3-yl)-propionamide] | 182 nM
O=C(NCc1cccnc1)C(Cc1c[nH]c2ccccc12)NCc1cc2ccccc2o1 (stereo not shown) [Example 231, 2-[(Benzofuran-2-ylmethyl)-amino]-3-(1H-indol-3-yl)-N-pyridin-3-ylmethyl-propionamide] | 790 nM
CC(CNC(=O)C(Cc1c[nH]c2ccccc12)NCc1cc2ccccc2o1)c1ccccc1 (stereo not shown) [Example 233, 2-[(Benzofuran-2-ylmethyl)-amino]-3-(1H-indol-3-yl)-N-(2-phenyl-propyl)-propionamide] | 2000 nM
O=C(CNC(=O)C(Cc1c[nH]c2ccccc12)NCc1cc2ccccc2o1)c1ccccc1 (stereo not shown) [Example 237, 2-[(Benzofuran-2-ylmethyl)-amino]-3-(1H-indol-3-yl)-N-(2-oxo-2-phenyl-ethyl)-propionamide] | 5340 nM
O=C(NC1Cc2ccccc2C1)C(Cc1c[nH]c2ccccc12)NCc1cc2ccccc2o1 (stereo not shown) [Example 239, 2-[(Benzofuran-2-ylmethyl)-amino]-N-indan-2-yl-3-(1H-indol-3-yl)-propionamide] | 243 nM
O=C(NCc1ccncc1)C(Cc1c[nH]c2ccccc12)NCc1cc2ccccc2o1 (stereo not shown) [Example 240] | 196 nM
Cc1ccccc1CNC(=O)C(Cc1c[nH]c2ccccc12)NCc1cc2ccccc2o1 (stereo not shown) [Example 242, 2-[(Benzofuran-2-ylmethyl)-amino]-3-(1H-indol-3-yl)-N-(2-methyl-benzyl)-propionamide] | 170 nM
O=C(NCc1nc2ccccc2[nH]1)C(Cc1c[nH]c2ccccc12)NCc1cc2ccccc2o1 (stereo not shown) [Example 250, 2-[(Benzofuran-2-ylmethyl)-amino]-N-(1H-benzoimidazol-2-ylmethyl)-3-(1H-indol-3-yl)-propionamide] | 3410 nM
O=C(NCCc1ccco1)C(Cc1c[nH]c2ccccc12)NCc1cc2ccccc2o1 (stereo not shown) [Example 251, 2-[(Benzofuran-2-ylmethyl)-amino]-N-(2-furan-2-yl-ethyl)-3-(1H-indol-3-yl)-propionamide] | 129 nM
O=C(NC1CCc2ccccc2C1)C(Cc1c[nH]c2ccccc12)NCc1cc2ccccc2o1 (stereo not shown) [Example 253, 2-[(Benzofuran-2-ylmethyl)-amino]-3-(1H-indol-3-yl)-N-(1,2,3,4-tetrahydro-naphthalen-2-yl)-propionamide] | 3330 nM

Stronger by IC50, values ahead:

IC50 | SMILES
54 nM | O=C(NCC1CCCCC1)C(Cc1c[nH]c2ccccc12)NCc1cc2ccccc2o1 (stereo not shown) [Example 226, 2-[(Benzofuran-2-ylmethyl)-amino]-N-cyclohexylmethyl-3-(1H-indol-3-yl)-propionamide]
82 nM | O=C(NCc1cccc(C(F)(F)F)c1)C(Cc1c[nH]c2ccccc12)NCc1cc2ccccc2o1 (stereo not shown) [Example 228, 2-[(Benzofuran-2-ylmethyl)-amino]-3-(1H-indol-3-yl)-N-(3-trifluoromethyl-benzyl)-propionamide]
33 nM | O=C(NCc1ccc(F)c(Cl)c1)C(Cc1c[nH]c2ccccc12)NCc1cc2ccccc2o1 (stereo not shown) [Example 229, 2-[(Benzofuran-2-ylmethyl)-amino]-N-(3-chloro-4-fluoro-benzyl)-3-(1H-indol-3-yl)-propionamide]
21 nM | CC(NC(=O)C(Cc1c[nH]c2ccccc12)NCc1cc2ccccc2o1)c1ccn(C)c1 (stereo not shown) [Example 230, 2-[(Benzofuran-2-ylmethyl)-amino]-3-(1H-indol-3-yl)-N-[1-(1-methyl-1H-pyrrol-3-yl)-ethyl]-propionamide]
63 nM | O=C(NCc1cccs1)C(Cc1c[nH]c2ccccc12)NCc1cc2ccccc2o1 (stereo not shown) [Example 232, 2-[(Benzofuran-2-ylmethyl)-amino]-3-(1H-indol-3-yl)-N-thiophen-2-ylmethyl-propionamide]
75 nM | CC(NC(=O)C(Cc1c[nH]c2ccccc12)NCc1cc2ccccc2o1)c1ccccc1 (stereo not shown) [Example 234, 2-[(Benzofuran-2-ylmethyl)-amino]-3-(1H-indol-3-yl)-N-(1-phenyl-ethyl)-propionamide]
3 nM | CC(NC(=O)C(Cc1c[nH]c2ccccc12)NCc1cc2ccccc2o1)c1ccc(F)cc1 (stereo not shown) [Example 235, 2-[(Benzofuran-2-ylmethyl)-amino]-N-[1-(4-fluoro-phenyl)-ethyl]-3-(1H-indol-3-yl)-propionamide]
7 nM | CC(NC(=O)C(Cc1c[nH]c2ccccc12)NCc1cc2ccccc2o1)c1ccsc1 (stereo not shown) [Example 236, 2-[(Benzofuran-2-ylmethyl)-amino]-3-(1H-indol-3-yl)-N-(1-thiophen-3-yl-ethyl)-propionamide]
89 nM | O=C(NCc1ccccc1F)C(Cc1c[nH]c2ccccc12)NCc1cc2ccccc2o1 (stereo not shown) [Example 238, 2-[(Benzofuran-2-ylmethyl)-amino]-N-(2-fluoro-benzyl)-3-(1H-indol-3-yl)-propionamide]
2 nM | CC(NC(=O)C(Cc1c[nH]c2ccccc12)NCc1cc2ccccc2o1)C1CCCCC1 (stereo not shown) [Example 241, 2-[(Benzofuran-2-ylmethyl)-amino]-N-(1-cyclohexyl-ethyl)-3-(1H-indol-3-yl)-propionamide]
15 nM | CC(NC(=O)C(Cc1c[nH]c2ccccc12)NCc1cc2ccccc2o1)c1ccc(Cl)s1 (stereo not shown) [Example 243, 2-[(Benzofuran-2-ylmethyl)-amino]-N-[1-(5-chloro-thiophen-2-yl)-ethyl]-3-(1H-indol-3-yl)-propionamide]
12 nM | O=C(NCc1ccc(F)cc1)C(Cc1c[nH]c2ccccc12)NCc1cc2ccccc2o1 (stereo not shown) [Example 244, 2-[(Benzofuran-2-ylmethyl)-amino]-N-(4-fluoro-benzyl)-3-(1H-indol-3-yl)-propionamide]
77 nM | O=C(NCCc1ccccc1)C(Cc1c[nH]c2ccccc12)NCc1cc2ccccc2o1 (stereo not shown) [Example 246, 2-[(Benzofuran-2-ylmethyl)-amino]-3-(1H-indol-3-yl)-N-phenethyl-propionamide]
56 nM | O=C(NCCc1cccs1)C(Cc1c[nH]c2ccccc12)NCc1cc2ccccc2o1 (stereo not shown) [Example 247, 2-[(Benzofuran-2-ylmethyl)-amino]-3-(1H-indol-3-yl)-N-(2-thiophen-2-yl-ethyl)-propionamide]
6 nM | O=C(NCc1cccc(F)c1)C(Cc1c[nH]c2ccccc12)NCc1cc2ccccc2o1 (stereo not shown) [Example 248, 2-[(Benzofuran-2-ylmethyl)-amino]-N-(3-fluoro-benzyl)-3-(1H-indol-3-yl)-propionamide]
33 nM | Cc1cccc(CNC(=O)C(Cc2c[nH]c3ccccc23)NCc2cc3ccccc3o2)c1 (stereo not shown) [Example 252, 2-[(Benzofuran-2-ylmethyl)-amino]-3-(1H-indol-3-yl)-N-(3-methyl-benzyl)-propionamide]
